Test results from ChEMBL document CHEMBL1128609, “Chemical synthesis and biological evaluation of 1d-1,2,4,5-InsP4 and its 3-fluorinated counterpart 1d-3-F-1,2,4,5-InsP4 potent 1d-1,4,5-InsP3-like calcium mobilizing analogues” (Bioorg Med Chem Lett, 1995).

Legend:
[1] = Effective concentration required for Calcium release via the intracellular InsP3 receptor of SH-SY5Y cells; format: functional, cell-based; settings: Homo sapiens
[2] = Inhibitory concentration required to displace [3H]insP3 from Inositol 1,4,5-trisphosphate receptor of bovine adrenal cortex membranes; format: tissue-based

EC50 [1] [nM]	IC50 [2] [nM]	Structure (SMILES)
51.6	5.5	O=P(O)(O)O[C@@H]1[C@H](O)[C@H](O)[C@@H](OP(=O)(O)O)[C@H](OP(=O)(O)O)[C@H]1O [INS(1,4,5)P3]
5420	269	O=P(O)(O)OC1C(O)C(O)C(OP(=O)(O)O)C(OP(=O)(O)O)C1F (stereo unspecified)
100	9.7	O=P(O)(O)OC1C(O)C(OP(=O)(O)O)C(OP(=O)(O)O)C(F)C1OP(=O)(O)O (stereo unspecified)
